# Marks after values point to notes of the source that are not given here.
# System: Mycobacterium tuberculosis strain (EH4.0, GFP-expressing; Test 2: H37Rv)
# Experiment: MIC determination against M. tuberculosis, Test 1 (and/or Test 2)
# Assay type: cell-based
# Details: 7 days incubation, fluorescence
row,Structure (SMILES),pIC50
1,CCc1nc2nc(NC)c(Cl)cn2c1C(=O)NCc1ccc(-c2nc3n(n2)CCN(S(=O)(=O)C(F)(F)F)C3)c(F)c1 [Compound 13],<6.301
2,CCc1nc2nc(C)c(Cl)cn2c1C(=O)NCc1ccc(-c2nc3n(n2)CCN(S(=O)(=O)C(F)(F)F)C3)cc1 [Compound 8],7.58
3,CCc1nc2ncc(C)cn2c1C(=O)NC1(c2ccc(-c3nc4n(n3)CCN(S(=O)(=O)C(F)(F)F)C4)cc2)CC1 [Compound 68],<6.3*
4,CCc1nc2cc(Cl)c(C)cn2c1C(=O)NCc1cnc(-c2nc3n(n2)CCN(S(=O)(=O)C(F)(F)F)C3)c(F)c1 [Compound 19],6.48
5,CCc1nc2ncc(C)cn2c1C(=O)NCc1cccc(Cc2nc3n(n2)CCN(S(=O)(=O)C(F)(F)F)C3)c1 [Compound 71],<6.3*
6,CCc1nc2ncc(C)cn2c1C(=O)NCc1coc(-c2nc3n(n2)CCN(S(=O)(=O)C(F)(F)F)C3)n1 [Compound 72],<6.3

# Same assay, conditions: Mycobacterium tuberculosis, H37RV, 168 h, 7 days incubation, fluorescence
row,Structure (SMILES),IC50 [nM]
1,CCc1nc2cc(N)c(Cl)cn2c1C(=O)NCc1cnc(-c2nc3n(n2)CCN(S(=O)(=O)C(F)(F)F)C3)c(F)c1 [Compound 78],> 501
2,Cc1ccc2nc(C)c(C(=O)NCc3ccc(-c4nc5n(n4)CCN(S(=O)(=O)C(F)(F)F)C5)cc3)n2c1 [Compound 34],12.6
3,CCc1nc2ncc(C)cn2c1C(=O)NCc1ccc(-c2nc3n(n2)CCN(CCC#N)C3)cc1 [Compound 61],389
4,CCc1nc2ncc(C)cn2c1C(=O)NCc1cccc(-c2nc3n(n2)CCN(S(=O)(=O)C(F)(F)F)C3)c1 [Compound 67],162
5,CCc1nc2ncc(C)cn2c1C(=O)NCc1csc(-c2nc3n(n2)CCN(S(=O)(=O)C(F)(F)F)C3)n1 [Compound 73],> 501
6,CCc1nc2ccc(C)cn2c1C(=O)NCc1ccc(-c2nc3n(n2)CCN(C(C)=O)C3)cc1 [Compound 46],282
7,CCc1nc2sc(Cl)cn2c1C(=O)NCc1ccc(-c2nc3n(n2)CCN(S(=O)(=O)C(F)(F)F)C3)cc1 [Compound 39],123
8,CCc1nc2n(c1C(=O)NCc1ccc(-c3nc4n(n3)CCN(S(=O)(=O)C(F)(F)F)C4)cc1)CCCC2 [Compound 31],24
9,CCc1nc2ccc(C)cn2c1C(=O)NCc1ccc(-c2nc3n(n2)CCN(S(=O)(=O)N2CCCC2)C3)cc1 [Compound 48],25.7
10,CCc1nc2c(Cl)c(OC)ccn2c1C(=O)NCc1ccc(-c2nc3n(n2)CCN(S(=O)(=O)C(F)(F)F)C3)c(F)c1 [Compound 11],447
11,CCc1nc2cc(Cl)c(C)cn2c1C(=O)NCc1ccc(-c2nc3n(n2)CCN(S(=O)(=O)C(F)(F)F)C3)cc1 [Compound 25],182
12,CCc1nc2ncc(C)cn2c1C(=O)NCc1ccc(-c2nc3n(n2)CCN(C(C)=O)C3)cc1 [Compound 40],501
13,CCc1nc2ncc(C)cn2c1C(=O)NCc1ccc(C2CN(c3nc4n(n3)CCN(S(=O)(=O)C(F)(F)F)C4)C2)cc1 [Compound 58],123
14,CCc1nc2nc(C)c(C)cn2c1C(=O)NCc1ccc(-c2nc3n(n2)CCN(S(=O)(=O)C(F)(F)F)C3)cc1 [Compound 33],12.9
15,CCc1nc2ncc(C)cn2c1C(=O)NCc1ccc(-c2nc3n(n2)CCN(S(=O)(=O)N(C)C)C3)cc1 [Compound 41],45.7
16,CCc1nc2ncc(C)cn2c1C(=O)NCc1ccc(-c2nc3n(n2)CCN(C)C3)cc1 [Compound 50],170
17,CCc1nc2nc3c(cn2c1C(=O)NCc1ccc(-c2nc4n(n2)CCN(S(=O)(=O)C(F)(F)F)C4)cc1)CCC3 [Compound 45],15.1
18,CCc1nc2n(c1C(=O)NCc1ccc(-c3nc4n(n3)CCN(S(=O)(=O)C(F)(F)F)C4)cc1)CCN(C)C2 [Compound 65],331
19,CCc1nc2ccc(C3CC3)cn2c1C(=O)NCc1ccc(-c2nc3n(n2)CCN(S(=O)(=O)C(F)(F)F)C3)cc1 [Compound 27],138
20,CCc1nc2cc(OC)c(Cl)cn2c1C(=O)NCc1cnc(-c2nc3n(n2)CCN(S(=O)(=O)C(F)(F)F)C3)c(F)c1 [Compound 16],501

row,Structure (SMILES),IC50 [nM]
1,CCc1nc2nc3c(cn2c1C(=O)NCc1ccc(-c2nc4n(n2)CCN(S(=O)(=O)C(F)(F)F)C4)c(F)c1)CCOC3 [Compound 18],151
2,CCc1nc2ncc(C)cn2c1C(=O)NCc1nc(-c2nc3n(n2)CCN(S(=O)(=O)C(F)(F)F)C3)cs1 [Compound 75],> 501
3,CCc1nc2ncc(C)cn2c1C(=O)NCc1ccc(-c2nc3n(n2)CCN(CCOC)C3)cc1 [Compound 54],132
4,CCc1nc2ncc(C)cn2c1C(=O)NCc1ccc(C2CCN(c3nc4n(n3)CCN(S(=O)(=O)C(F)(F)F)C4)CC2)cc1 [Compound 59],110
5,CCc1nc2ncc(C)cn2c1C(=O)NCc1cnc(-c2nc3n(n2)CCN(S(=O)(=O)C(F)(F)F)C3)s1 [Compound 74],309
6,CCc1nc2ncc(C)cn2c1C(=O)NCc1ccc(C2CCN(c3nc4n(n3)CCN(S(=O)(=O)C(F)(F)F)C4)C2)cc1 (stereo not shown) [Compound 69],15.1
7,CCc1nc2n(c1C(=O)NCc1ccc(-c3nc4n(n3)CCN(S(=O)(=O)C(F)(F)F)C4)cc1)CCOC2 [Compound 63],191
8,CCc1nc2ncc(Cl)cn2c1C(=O)NCc1cnc(-c2nc3n(n2)CCN(S(=O)(=O)C(F)(F)F)C3)c(F)c1 [Compound 77],457
9,CCc1nc2ccc(C)cn2c1C(=O)NCc1ccc(-c2nc3n(n2)CCNC3)cc1 [Compound 52],209
10,CCc1nc2sc(C)cn2c1C(=O)NCc1ccc(-c2nc3n(n2)CCN(S(=O)(=O)C(F)(F)F)C3)cc1 [Compound 36],16.2
11,CCc1nc2ccc(F)cn2c1C(=O)NCc1ccc(-c2nc3n(n2)CCN(S(=O)(=O)C(F)(F)F)C3)cc1 [Compound 22],44.7
12,CCc1nc2ccc(C)cn2c1C(=O)NCc1ccc(-c2nc3n(n2)CCN(CCOC)C3)cc1 [Compound 55],50.1
13,CCc1nc2ccc(C)cn2c1C(=O)NCc1ccc(-c2nc3n(n2)CCN(C)C3)cc1 [Compound 56],74.1
14,CCc1nc2ncc(C)cn2c1C(=O)NCc1ccc(N2CCN(c3nc4n(n3)CCN(S(=O)(=O)C(F)(F)F)C4)CC2)cc1 [Compound 70],91.2
15,CCc1nc2ccc(Cl)cn2c1C(=O)NCc1ccc(-c2nc3n(n2)CCN(S(=O)(=O)C(F)(F)F)C3)c(F)c1 [Compound 3],61.7
16,CCc1nc2ncc(C3CC3)cn2c1C(=O)NCc1ccc(-c2nc3n(n2)CCN(S(=O)(=O)C(F)(F)F)C3)cc1 [Compound 28],53.7
17,CCc1nc2ccc(C)cn2c1C(=O)NCc1ccc(-c2nc3n(n2)CCN(S(=O)(=O)N(C)C)C3)cc1 [Compound 51],41.7
18,CCc1nc2ncc(C)cn2c1C(=O)NCc1nnc(-c2nc3n(n2)CCN(S(=O)(=O)C(F)(F)F)C3)s1 [Compound 76],> 501
19,Cc1ccc2nc(C3CC3)c(C(=O)NCc3ccc(-c4nc5n(n4)CCN(S(=O)(=O)C(F)(F)F)C5)cc3)n2c1 [Compound 30],41.7
20,CCc1nc2ncc(C)cn2c1C(=O)NCc1ccc(-c2nc3n(n2)CCNC3)cc1 [Compound 37],457

row,Structure (SMILES),IC50 [nM]
1,CCc1nc2ncc(Cl)cn2c1C(=O)NCc1ccc(-c2nc3n(n2)CCN(S(=O)(=O)C(F)(F)F)C3)c(F)c1 [Compound 4],12.6
2,CCc1nc2c(F)cc(Cl)cn2c1C(=O)NCc1ccc(-c2nc3n(n2)CCN(S(=O)(=O)C(F)(F)F)C3)cc1 [Compound 21],40.7
3,CCc1nc2cc(C)c(Cl)cn2c1C(=O)NCc1cnc(-c2nc3n(n2)CCN(S(=O)(=O)C(F)(F)F)C3)c(F)c1 [Compound 20],501
4,Cc1nc2sc(Cl)cn2c1C(=O)NCc1ccc(-c2nc3n(n2)CCN(S(=O)(=O)C(F)(F)F)C3)cc1 [Compound 38],282
5,CCc1nc2ncc(F)cn2c1C(=O)NCc1ccc(-c2nc3n(n2)CCN(S(=O)(=O)C(F)(F)F)C3)c(F)c1 [Compound 17],195
6,CCc1nc2cc(C)c(Cl)cn2c1C(=O)NCc1ccc(-c2nc3n(n2)CCN(S(=O)(=O)C(F)(F)F)C3)c(F)c1 [Compound 9],363
7,Cc1cnc2nc(C)c(C(=O)NCc3ccc(-c4nc5n(n4)CCN(S(=O)(=O)C(F)(F)F)C5)cc3)n2c1 [Compound 29],21.9
8,CCc1nc2ncc(C)cn2c1C(=O)NCc1ncc(-c2nc3n(n2)CCN(S(=O)(=O)C(F)(F)F)C3)s1 [Compound 64],132
9,O=C(NCc1ccc(-c2nc3n(n2)CCN(S(=O)(=O)C(F)(F)F)C3)c(F)c1)c1c(C(F)F)nc2ccc(Cl)cn12 [Compound 5],229
10,CCc1nc2ncc(C)cn2c1C(=O)NCc1ccc(N2CCC(c3nc4n(n3)CCN(S(=O)(=O)C(F)(F)F)C4)CC2)cc1 [Compound 60],93.3
11,Cc1cn2c(C(=O)NCc3ccc(-c4nc5n(n4)CCN(S(=O)(=O)C(F)(F)F)C5)cc3)c(C)nc2s1 [Compound 32],60.3
12,CCc1nc2ncc(C(C)C)cn2c1C(=O)NCc1ccc(-c2nc3n(n2)CCN(S(=O)(=O)C(F)(F)F)C3)cc1 [Compound 26],245
13,CCc1nc2cc(C)c(C)cn2c1C(=O)NCc1ccc(-c2nc3n(n2)CCN(S(=O)(=O)C(F)(F)F)C3)cc1 [Compound 23],32.4
14,CCc1nc2ccc(C(C)C)cn2c1C(=O)NCc1ccc(-c2nc3n(n2)CCN(S(=O)(=O)C(F)(F)F)C3)cc1 [Compound 35],> 500
15,CCc1nc2ncc(C)cn2c1C(=O)NCc1ccc(-c2nc3n(n2)CCN(C(=O)C(F)(F)F)C3)cc1 [Compound 43],282
16,CCc1nc2ccc(C)cn2c1C(=O)NCc1ccc(-c2nc3n(n2)CCN(CCC#N)C3)cc1 [Compound 62],174
17,CCc1nc2ccc(C)cn2c1C(=O)NCc1ccc(-c2nc3n(n2)CCN(C(=O)C(F)(F)F)C3)cc1 [Compound 53],120
18,CCc1nc2ncc(C)cn2c1C(=O)NCc1ccc(-c2nc3n(n2)CCN(S(=O)(=O)C(F)(F)F)C3)s1 [Compound 57],26.3
